Results taken from US9278958B2, “Anti-cancer compounds” (KATHOLIEKE UNIVERSITEIT LEUVEN, priority 2012, dated 2016).
Read-outs that look alike come from different tables or passages of the source.

Assays:
[1] = test system: HL60, human leukemia cells; experiment: Cytostatic assay, HL-60; format: cell-based; settings: Table 2
Description: (§1) To each well of a 96-well microtiter plate were added 5-7.5×10^4 cells and a given amount of the test compound. The cells were allowed to proliferate for 48 h to 96 h (depending on the nature of the cell line) at 37° C. in a humidified CO2-controlled atmosphere. At the end of the incubation period, the cells were counted in a Coulter Counter (Coulter Electronics Ltd, Harpenden Herts, United Kingdom).

[2] = test system: Huh-7 hepatoma cells; experiment: Cytostatic assay, Huh-7; format: cell-based; settings: Homo sapiens, Table 4
Description: as §1

[3] = test system: MCF-7 mammary carcinoma cells; experiment: Cytostatic assay, MCF-7; format: cell-based; settings: Homo sapiens, MCF7; Table 3
Description: as §1

[4] = test system: HEL embryonic lung fibroblast cells; experiment: Cytostatic assay, HEL; format: cell-based; settings: Homo sapiens, Table 3
Description: as §1

[5] = test system: C8166 cells; experiment: Cytostatic assay, C8166; format: cell-based; settings: Homo sapiens, Table 2
Description: as §1

[6] = test system: Caki-2 kidney carcinoma cells; experiment: Cytostatic assay, Caki-2; format: cell-based; settings: Homo sapiens, Table 3
Description: as §1

[7] = test system: THP-1, human monocytic cells; experiment: Cytostatic assay, THP-1; format: cell-based; settings: Table 2
Description: as §1

[8] = test system: L1210 cells; experiment: Cytostatic assay, L1210; format: cell-based; settings: Mus musculus, Table 2
Description: as §1

[9] = test system: Raji, human B-lymphoma cells; experiment: Cytostatic assay, Raji; format: cell-based; settings: Table 2
Description: as §1

[10] = test system: DU145 (UZ) prostate cancer cells; experiment: Cytostatic assay, DU145 (UZ); format: cell-based; settings: Homo sapiens, DU-145; Table 4
Description: as §1

[11] = test system: OST TK- osteosarcoma cells; experiment: Cytostatic assay, OST TK-; format: cell-based; settings: Homo sapiens; Table 3
Description: as §1

[12] = test system: 293T embryonic kidney cells; experiment: Cytostatic assay, 293T; format: cell-based; settings: Homo sapiens, HEK-293T; Table 3
Description: as §1

[13] = test system: MT-2 cells; experiment: Cytostatic assay, MT-2; format: cell-based; settings: Homo sapiens, MT2; Table 2
Description: as §1

[14] = test system: U937, human monocytic cells; experiment: Cytostatic assay, U937; format: cell-based; settings: U-937, Table 2
Description: as §1

[15] = test system: BPH-1 (UZ); experiment: Cytostatic assay, BPH-1 (UZ); format: cell-based; settings: Homo sapiens, Table 4
Description: as §1

[16] = test system: FM3A mammary carcinoma cells; experiment: Cytostatic assay, FM3A; format: cell-based, murine; settings: Mus musculus, Table 3
Description: as §1

[17] = test system: PNT1A (UZ) prostate cells; experiment: Cytostatic assay, PNT1A (UZ); format: cell-based; settings: Homo sapiens, Table 4
Description: as §1

[18] = test system: BAEC aortic endothelial cells; experiment: Cytostatic assay, BAEC; format: cell-based, bovine; settings: Bos taurus, Table 3
Description: as §1

[19] = test system: PC-3 (UZ) prostate cancer cells; experiment: Cytostatic assay, PC-3 (UZ); format: cell-based; settings: Table 4
Description: as §1

[20] = test system: HT29 colorectal carcinoma cells; experiment: Cytostatic assay, HT29; format: cell-based; settings: Homo sapiens, HT-29; Table 3
Description: as §1

[21] = test system: HUT-78 cells; experiment: Cytostatic assay, HUT-78; format: cell-based; settings: Homo sapiens, HuT78; Table 2
Description: as §1

[22] = test system: MT-4 cells; experiment: Cytostatic assay, MT-4; format: cell-based; settings: Homo sapiens, MT4; Table 2
Description: as §1

[23] = test system: 22Rv1 (UZ) prostate cancer cells; experiment: Cytostatic assay, 22Rv1 (UZ); format: cell-based; settings: Homo sapiens, Table 4
Description: as §1

[24] = test system: Sup T1 cells; experiment: Cytostatic assay, Sup T1; format: cell-based; settings: Homo sapiens, Table 2, read-out: Cytostatic activity (μM) Sup T 1
Description: as §1

[25] = test system: U87 glioma cells; experiment: Cytostatic assay, U87; format: cell-based; settings: Homo sapiens, U-87 MG; Table 3
Description: as §1

[26] = test system: Caki-1 kidney carcinoma cells; experiment: Cytostatic assay, Caki-1; format: cell-based; settings: Homo sapiens, Table 3
Description: as §1

[27] = test system: PC3 (rega) prostate cancer cells; experiment: Cytostatic assay, PC3 (rega); format: cell-based; settings: Table 4
Description: as §1

[28] = test system: LNCaP (UZ) prostate cancer cells; experiment: Cytostatic assay, LNCaP (UZ); format: cell-based; settings: Homo sapiens, Table 4
Description: as §1

[29] = test system: CEM cells; experiment: Cytostatic assay, CEM; format: cell-based; settings: Homo sapiens, CCRF-CEM
Description: as §1

[30] = test system: Molt4/C8 cells; experiment: Cytostatic assay, Molt4/C8; format: cell-based; settings: Table 2
Description: as §1

[31] = test system: HepG2C3A hepatoma cells; experiment: Cytostatic assay, HepG2C3A; format: cell-based; settings: Homo sapiens, HepG2/C3A; Table 4
Description: as §1

[32] = test system: HeLa cervix carcinoma cells; experiment: Cytostatic assay, HeLa; format: cell-based, human; settings: Homo sapiens; Table 3; read-out: Cytostatic activity (μM) Hela
Description: as §1

[33] = test system: PLC/PRF/5 hepatoma cells; experiment: Cytostatic assay, PLC/PRF/5; format: cell-based; settings: Homo sapiens, Table 4
Description: as §1

[34] = Table 1a, read-out: IC50 μM (CEM)
[35] = Table 2, read-out: Cytostatic activity (μM) CEM

CCOC(=O)c1c(N)sc(CCc2ccc(OC)cc2)c1C(=O)OCC [TR547, 2-Amino-5-[2-(4-methoxy-phenyl)-ethyl]-thiophene-3,4-dicarboxylic acid diethyl ester]
IC50 [1]: 46 ± 25 µM | IC50 [2]: 51 ± 14 µM | IC50 [3]: 87 ± 21 µM | IC50 [4]: 44 ± 3.5 µM | IC50 [5]: 122 ± 12 µM | IC50 [6]: 57 ± 24 µM | IC50 [7]: 26 ± 2.8 µM | IC50 [8]: 105 ± 48 µM | IC50 [9]: 58 ± 13 µM | IC50 [10]: 89 ± 16 µM | IC50 [11]: 71 ± 7.8 µM | IC50 [12]: 58 ± 2.8 µM | IC50 [13]: 31 ± 29 µM | IC50 [14]: 80 ± 3.5 µM | IC50 [15]: 65 ± 9.2 µM | IC50 [16]: 86 ± 5.6 µM | IC50 [17]: 56 µM | IC50 [18]: 82 ± 26 µM | IC50 [19]: 31 ± 5.7 µM | IC50 [20]: 46 ± 3.5 µM | IC50 [21]: 120 ± 44 µM | IC50 [22]: 38 ± 3.5 µM | IC50 [23]: 31 ± 4.2 µM | IC50 [24]: 73 ± 13 µM | IC50 [25]: 81 ± 27 µM | IC50 [26]: 87 ± 21 µM | IC50 [27]: 38 ± 12 µM | IC50 [28]: 19 ± 10 µM | IC50 [29, 34]: 72 µM | IC50 [29, 35]: 72 ± 6.4 µM | IC50 [30]: 54 ± 6 µM | IC50 [31]: 48 ± 16 µM | IC50 [32]: 41 ± 7.1 µM | IC50 [33]: 75 ± 35 µM

N#Cc1cc(CCc2ccccc2)sc1N [TR588, 2-Amino-5-phenethyl-thiophene-3-carbonitrile]
IC50 [1]: 3.9 ± 0.5 µM | IC50 [2]: 21 ± 7.1 µM | IC50 [3]: 26 ± 2.1 µM | IC50 [4]: 30 ± 6.4 µM | IC50 [5]: ≥ 200 µM | IC50 [6]: 78 ± 69 µM | IC50 [7]: 8.4 ± 0.28 µM | IC50 [8]: 40 ± 6 µM | IC50 [9]: 39 ± 21 µM | IC50 [10]: 24 ± 4.9 µM | IC50 [11]: 27 ± 18 µM | IC50 [12]: 34 ± 14 µM | IC50 [13]: 6.65 ± 1.9 µM | IC50 [14]: 42 ± 2.1 µM | IC50 [15]: ≥ 100 µM | IC50 [16]: 67 ± 23 µM | IC50 [17]: 66 ± 31 µM | IC50 [18]: 45 ± 4.9 µM | IC50 [19]: 11 ± 4.2 µM | IC50 [20]: 66 ± 6.4 µM | IC50 [21]: 18 ± 7.1 µM | IC50 [22]: 75 ± 35 µM | IC50 [23]: 61 ± 34 µM | IC50 [24]: > 200 µM | IC50 [25]: 46 ± 7.8 µM | IC50 [26]: 1.3 ± 0.4 µM | IC50 [27]: 3.1 ± 1.2 µM | IC50 [28]: 5.3 ± 4.3 µM | IC50 [29, 34]: 47 µM | IC50 [29, 35]: 47 ± 25 µM | IC50 [30]: 8.5 ± 3.4 µM | IC50 [31]: 64 ± 52 µM | IC50 [32]: 27 ± 28 µM | IC50 [33]: 41 ± 3.5 µM

COC(=O)c1cc(CCc2ccccn2)sc1N [TR596, 2-Amino-5-(2-pyridin-2-yl-ethyl)-thiophene-3-carboxylic acid methyl ester]
IC50 [1]: 73 ± 30 µM | IC50 [2]: 46 ± 34 µM | IC50 [3]: 72 ± 45 µM | IC50 [4]: 43 ± 9.2 µM | IC50 [5]: ≥ 200 µM | IC50 [6]: > 200 µM | IC50 [7]: 116 ± 49 µM | IC50 [8]: 101 ± 28 µM | IC50 [9]: 76 ± 35 µM | IC50 [10]: > 100 µM | IC50 [11]: 135 ± 92 µM | IC50 [12]: > 100 µM | IC50 [13]: 48 ± 7.1 µM | IC50 [14]: > 200 µM | IC50 [15]: > 100 µM | IC50 [16]: 210 ± 17 µM | IC50 [17]: > 100 µM | IC50 [18]: > 100 µM | IC50 [19]: 8.6 ± 0.21 µM | IC50 [20]: > 100 µM | IC50 [21]: 142 ± 83 µM | IC50 [22]: > 100 µM | IC50 [23]: 77 ± 27 µM | IC50 [24]: 99 µM | IC50 [25]: > 100 µM | IC50 [26]: 17 ± 13 µM | IC50 [27]: 8.5 ± 7.8 µM | IC50 [28]: 4.3 ± 3.2 µM | IC50 [29, 34]: 63 µM | IC50 [29, 35]: 63 ± 7.8 µM | IC50 [30]: 21 ± 4 µM | IC50 [31]: 69 ± 45 µM | IC50 [32]: 45 ± 3 µM | IC50 [33]: > 100 µM

CCOC(=O)c1cc(-c2ccccc2OC)sc1N [TR531, 2-Amino-5-(2-methoxy-phenyl)-thiophene-3-carboxylic acid ethyl ester]
IC50 [1]: 17 ± 5.7 µM | IC50 [2]: 43 ± 12 µM | IC50 [3]: 48 ± 11 µM | IC50 [4]: 25 ± 3.5 µM | IC50 [5]: 133 ± 7.8 µM | IC50 [6]: 17 ± 3.5 µM | IC50 [7]: 25 ± 19 µM | IC50 [8]: 41 ± 3 µM | IC50 [9]: 48 ± 13 µM | IC50 [10]: 34 ± 4.2 µM | IC50 [11]: 18 ± 1.4 µM | IC50 [12]: 58 ± 7.1 µM | IC50 [13]: 27 ± 4.2 µM | IC50 [14]: 73 ± 3.5 µM | IC50 [15]: 39 µM | IC50 [16]: 49 ± 1 µM | IC50 [17]: 45 ± 1.4 µM | IC50 [18]: 31 ± 6.4 µM | IC50 [19]: 28 ± 0.71 µM | IC50 [20]: 43 ± 2.8 µM | IC50 [21]: 108 ± 5.7 µM | IC50 [22]: 44 ± 5.7 µM | IC50 [23]: 20 ± 5.1 µM | IC50 [24]: 28 ± 12 µM | IC50 [25]: 38 ± 8.5 µM | IC50 [26]: 17 ± 3.5 µM | IC50 [27]: 25 ± 6.4 µM | IC50 [28]: 11 ± 5 µM | IC50 [29, 34]: 27 µM | IC50 [29, 35]: 27 ± 10 µM | IC50 [30]: 31 ± 2.1 µM | IC50 [31]: 10 ± 5.2 µM | IC50 [32]: 40 ± 9 µM | IC50 [33]: 21 ± 0.71 µM
